Experimental data taken from patent US10537567B2, “Kinase inhibitors for treatment of disease” (BioAxone BioSciences, Inc., priority 2017, dated 2020).

Assays:
[1] = Total body irradiation (TBI) mouse model, GI histopathology; assay type: in vivo, mice; conditions: dosing for three days, 3 days after irradiation
Method: At day 0, TBI is carried out at a lethal dose of 8.0 Gy (Harlan mice) or 9.0 Gy (Coats mice)-doses that are expected to cause death in about 90% of animals within 30 days. […] Mice are monitored for survival up to day 30. During this period, mice were deprived of all supportive care, including antibiotics, to increase the stringency of the survival protocol. Survival is assessed with Kaplan-Meir curves. […] Mice are euthanized at 3 days and GI tissue is paraffin-embedded, sectioned and immunolabeled with rabbit anti-mouse leucine-rich-repeat-containing G-protein-coupled receptor 5 (LGR5), a GI stem cell marker that is expressed upon GI injury.

[2] = Hyperemia / ocular tolerability testing in Dutch-Belted rabbits; assay type: in vivo, Dutch-Belted rabbits (Oryctolagus cuniculus)
Text: To test for hyperemia, the rabbit is a standard species used in ocular tolerability studies based upon historical data and FDA requirements. For this study, four (4) Dutch-Belted rabbits (Oryctolagus cuniculus) were manually restrained to facilitate topical dosing followed by ocular examinations, and IOP measurements. Prior to placement on study, each animal underwent an ophthalmic examination (slit-lamp biomicroscopy, indirect ophthalmoscopy). Ocular findings were scored according to a modified McDonald-Shadduck Scoring System. […] Test and control articles were dosed in the morning at approximately the same time every day (˜8 am±2 hours). Animals were observed within their cages once daily throughout the study period. […] Any abnormal observation was reported to the Study Director. Ocular findings were scored according to a modified McDonald-Shadduck Scoring System. The scoring system 0=normal and numbers of 1-4 score mild to severe.
(Table 3). Thus, these ROCK inhibitors have promise for therapeutic use in treating eye pathologies.

[3] = biological target: T1, ROCK2 (Homo sapiens, UniProt O75116); test: Direct filter-binding radiometric kinase assay (Eurofins) at Km ATP; assay type: biochemical; design: purchased Eurofins Testing (Dundee, Scotland, UK); conditions: for ROCK1/ROCK2 (fold difference): IC50 at respective Km ATP
Method: (§1) ROCK1 and ROCK2 IC50 determinations were made using ATP concentrations at the Km ATP of 70 μM and 15 μM for ROCK1 and ROCK2, respectively.
(§2) For the data shown in Table 4, IC50 inhibition curves were performed at the respective Km for ATP for both ROCK1 and ROCK2. Performing these assays at the Km of ATP gives a better representation of the inhibitory activity. Other comparisons where differing kinases are tested at a single ATP concentration can potentially misrepresent the comparative efficacy since enzyme inhibitory activity tested below the Km for ATP of the enzyme, produces a circumstance where the enzyme is actually not constantly bound with ATP and the reaction velocity becomes sub-optimal.
Target sequence in this assay (O75116 whole entry): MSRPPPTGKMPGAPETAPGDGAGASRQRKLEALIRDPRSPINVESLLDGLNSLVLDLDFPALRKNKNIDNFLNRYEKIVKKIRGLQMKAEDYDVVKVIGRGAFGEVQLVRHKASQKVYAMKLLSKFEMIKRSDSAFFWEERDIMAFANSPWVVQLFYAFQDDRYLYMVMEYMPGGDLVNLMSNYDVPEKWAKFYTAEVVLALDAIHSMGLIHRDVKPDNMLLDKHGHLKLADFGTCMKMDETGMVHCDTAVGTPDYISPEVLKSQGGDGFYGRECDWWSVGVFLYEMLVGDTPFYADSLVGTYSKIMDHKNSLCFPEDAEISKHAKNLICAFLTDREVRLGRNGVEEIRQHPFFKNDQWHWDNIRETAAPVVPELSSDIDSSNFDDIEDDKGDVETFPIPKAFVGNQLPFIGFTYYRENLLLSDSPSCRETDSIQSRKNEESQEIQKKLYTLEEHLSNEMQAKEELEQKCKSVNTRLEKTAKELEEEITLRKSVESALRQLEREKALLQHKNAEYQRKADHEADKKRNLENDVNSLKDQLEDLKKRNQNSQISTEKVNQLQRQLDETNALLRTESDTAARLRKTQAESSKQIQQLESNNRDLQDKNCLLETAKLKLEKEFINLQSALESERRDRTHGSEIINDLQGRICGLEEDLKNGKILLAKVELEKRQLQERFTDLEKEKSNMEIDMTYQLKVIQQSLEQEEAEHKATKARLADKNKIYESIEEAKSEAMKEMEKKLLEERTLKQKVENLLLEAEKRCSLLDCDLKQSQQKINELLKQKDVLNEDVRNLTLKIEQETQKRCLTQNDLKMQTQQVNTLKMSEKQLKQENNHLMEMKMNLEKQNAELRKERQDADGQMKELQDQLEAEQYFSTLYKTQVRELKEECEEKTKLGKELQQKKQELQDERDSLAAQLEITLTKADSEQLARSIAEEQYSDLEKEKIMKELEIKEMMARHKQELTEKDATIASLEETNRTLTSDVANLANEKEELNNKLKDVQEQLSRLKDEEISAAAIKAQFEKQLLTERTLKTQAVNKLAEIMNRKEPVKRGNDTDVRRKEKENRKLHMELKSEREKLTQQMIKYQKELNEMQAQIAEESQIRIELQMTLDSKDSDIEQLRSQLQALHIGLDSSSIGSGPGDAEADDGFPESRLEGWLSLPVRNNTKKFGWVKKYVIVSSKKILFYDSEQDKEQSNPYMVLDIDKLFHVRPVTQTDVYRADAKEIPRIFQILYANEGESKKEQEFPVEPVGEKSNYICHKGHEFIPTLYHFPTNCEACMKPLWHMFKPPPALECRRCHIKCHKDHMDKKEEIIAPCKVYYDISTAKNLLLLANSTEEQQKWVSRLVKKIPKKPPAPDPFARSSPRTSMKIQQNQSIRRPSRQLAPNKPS

[4] = biological target: T2, ROCK1 (Homo sapiens, UniProt Q13464); test: as above; assay type: biochemical; design: purchased Eurofins Testing (Dundee, Scotland, UK)
Method: as §1, §2
Target sequence in this assay (Q13464 whole entry): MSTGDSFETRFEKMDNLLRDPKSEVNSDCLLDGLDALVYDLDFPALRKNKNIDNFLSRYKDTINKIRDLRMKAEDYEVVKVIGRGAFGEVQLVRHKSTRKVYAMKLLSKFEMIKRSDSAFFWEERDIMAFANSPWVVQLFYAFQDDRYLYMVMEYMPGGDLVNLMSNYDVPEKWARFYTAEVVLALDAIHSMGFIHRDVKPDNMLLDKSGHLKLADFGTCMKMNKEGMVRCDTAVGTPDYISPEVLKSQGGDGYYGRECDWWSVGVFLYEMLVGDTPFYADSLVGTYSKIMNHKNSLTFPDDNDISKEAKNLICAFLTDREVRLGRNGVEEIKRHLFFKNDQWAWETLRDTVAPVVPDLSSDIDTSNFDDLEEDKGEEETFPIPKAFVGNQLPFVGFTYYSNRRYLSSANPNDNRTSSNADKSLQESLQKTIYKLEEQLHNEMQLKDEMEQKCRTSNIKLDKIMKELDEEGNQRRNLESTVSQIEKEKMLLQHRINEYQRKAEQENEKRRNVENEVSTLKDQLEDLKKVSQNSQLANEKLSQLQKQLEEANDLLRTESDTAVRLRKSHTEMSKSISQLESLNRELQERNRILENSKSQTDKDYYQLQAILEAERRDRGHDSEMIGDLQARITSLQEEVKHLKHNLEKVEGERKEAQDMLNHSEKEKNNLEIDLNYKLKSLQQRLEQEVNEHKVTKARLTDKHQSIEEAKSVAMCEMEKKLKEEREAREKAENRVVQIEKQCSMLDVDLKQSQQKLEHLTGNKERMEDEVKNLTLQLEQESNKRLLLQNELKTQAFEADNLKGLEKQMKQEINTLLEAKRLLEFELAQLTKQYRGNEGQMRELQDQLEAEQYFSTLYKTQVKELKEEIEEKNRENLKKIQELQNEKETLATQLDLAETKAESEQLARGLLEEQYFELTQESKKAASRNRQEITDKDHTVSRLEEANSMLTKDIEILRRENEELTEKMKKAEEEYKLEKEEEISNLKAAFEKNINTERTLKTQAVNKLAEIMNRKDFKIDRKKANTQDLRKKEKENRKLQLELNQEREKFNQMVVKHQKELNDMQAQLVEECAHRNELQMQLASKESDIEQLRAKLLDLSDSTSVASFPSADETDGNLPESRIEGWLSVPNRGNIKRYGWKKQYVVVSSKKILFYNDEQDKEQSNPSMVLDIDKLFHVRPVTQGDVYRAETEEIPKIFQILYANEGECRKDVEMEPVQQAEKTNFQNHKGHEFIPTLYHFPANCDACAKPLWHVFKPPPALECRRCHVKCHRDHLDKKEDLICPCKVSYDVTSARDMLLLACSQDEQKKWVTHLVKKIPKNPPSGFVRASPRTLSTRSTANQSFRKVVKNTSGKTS

[5] = biological target: PKA (Homo sapiens, UniProt P17612); test: Single dose inhibition assay of key AGC class kinases; assay type: biochemical; conditions: 10 μM API
Method: Molecular modeling and rational drug design were used to create and screen over 50 ROCK inhibitors. These ROCK inhibitors were screened for selectivity for ROCK2 and ability to promote neurite outgrowth. Several lead inhibitors came out of this screen and further screened for inhibition of key AGC class kinases by a single dose inhibition assay performed with 10 μM active pharmaceutical ingredient (API). The lead compound is chiral. […] They have different selectivity for ROCK2 (Table 2) and different off-target profiles (Table 1; FIG. 1).

[6] = biological target: T1, ROCK2; test: DiscoverX kinome screen; assay type: binding; design: are incubated with DNA-tagged kinase domains tagged; DNA tag; purchased DiscoverX; conditions: 10,000 nM API
Method: (§3) A 468-target kinome screen and a safety screen were carried out to examine the off-target profiles of different kinase inhibitors (DiscoverX, Freemont, Calif.). The kinome screen is a binding assay where API interference of kinase domain/substrate binding is assessed as percent of control. Less than 10% binding (or >90% binding inhibition) is most biologically relevant and considered as a ‘hit’. BA-2017 only had 7 off-target hits compared to BA-1049 and Netarsudil, which both had 11 hits (Table 1) (Studirvant et al. 2016 Bioorg Med Chem Lett. 26(10):2475-2480). […] Published data for Netarsudil were with 200 times less API. […] The NET activity likely helps to decrease IOP but might increase hyperemia, while the SERT activity might have long-term safety consequences (Costagliola et al. 2004 CNS drugs 18(8): p. 475-484).
(§4) In the kinome screen BA-2017 had fewer off-target hits (Table 1) than BA-1049. […] An interesting hit from the kinome screen was on Abl (Table 1), an oncogene that also regulates many cellular activities, including vascular leakage.
Target sequence in this assay (O75116 92-354 limits assumed): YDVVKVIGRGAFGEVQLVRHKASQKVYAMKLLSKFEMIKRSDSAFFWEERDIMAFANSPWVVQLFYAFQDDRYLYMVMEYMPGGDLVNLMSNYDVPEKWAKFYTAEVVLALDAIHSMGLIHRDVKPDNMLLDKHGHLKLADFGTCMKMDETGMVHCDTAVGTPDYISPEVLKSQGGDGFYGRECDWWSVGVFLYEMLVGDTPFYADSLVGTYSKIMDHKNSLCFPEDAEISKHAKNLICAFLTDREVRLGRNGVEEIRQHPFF

[7] = biological target: T2, ROCK1; test: DiscoverX kinome screen; assay type: binding; design: are incubated with DNA-tagged kinase domains tagged; DNA tag; purchased DiscoverX; conditions: 10,000 nM API
Method: as §3, §4
Target sequence in this assay (Q13464 76-338 limits assumed): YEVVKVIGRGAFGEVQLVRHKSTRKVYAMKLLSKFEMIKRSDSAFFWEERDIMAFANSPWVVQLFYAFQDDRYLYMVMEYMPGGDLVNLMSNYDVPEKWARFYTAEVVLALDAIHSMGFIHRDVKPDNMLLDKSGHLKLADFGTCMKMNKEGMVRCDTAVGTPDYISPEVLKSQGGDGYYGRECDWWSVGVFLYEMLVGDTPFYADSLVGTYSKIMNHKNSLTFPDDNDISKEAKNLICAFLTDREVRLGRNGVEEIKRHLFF

[8] = biological target: T2, ROCK1; test: IC50 determined at 10 μM ATP; assay type: biochemical; design: purchased Eurofins Testing (Dundee, Scotland, UK); conditions: 10 μM ATP (below Km)
Target sequence in this assay (Q13464 whole entry): as the sequence (Q13464 whole entry) above

[9] = biological target: T1, ROCK2; test: IC50 determined at 10 μM ATP; assay type: biochemical; design: purchased Eurofins Testing (Dundee, Scotland, UK)
Text: The data in Table 2 were obtained at ATP concentration below those corresponding to Km.
Target sequence in this assay (O75116 whole entry): as the sequence (O75116 whole entry) above

[10] = biological target: Abl (Homo sapiens, UniProt P00519); test: Second kinome screen; assay type: binding
Abl, sequence (P00519 whole entry): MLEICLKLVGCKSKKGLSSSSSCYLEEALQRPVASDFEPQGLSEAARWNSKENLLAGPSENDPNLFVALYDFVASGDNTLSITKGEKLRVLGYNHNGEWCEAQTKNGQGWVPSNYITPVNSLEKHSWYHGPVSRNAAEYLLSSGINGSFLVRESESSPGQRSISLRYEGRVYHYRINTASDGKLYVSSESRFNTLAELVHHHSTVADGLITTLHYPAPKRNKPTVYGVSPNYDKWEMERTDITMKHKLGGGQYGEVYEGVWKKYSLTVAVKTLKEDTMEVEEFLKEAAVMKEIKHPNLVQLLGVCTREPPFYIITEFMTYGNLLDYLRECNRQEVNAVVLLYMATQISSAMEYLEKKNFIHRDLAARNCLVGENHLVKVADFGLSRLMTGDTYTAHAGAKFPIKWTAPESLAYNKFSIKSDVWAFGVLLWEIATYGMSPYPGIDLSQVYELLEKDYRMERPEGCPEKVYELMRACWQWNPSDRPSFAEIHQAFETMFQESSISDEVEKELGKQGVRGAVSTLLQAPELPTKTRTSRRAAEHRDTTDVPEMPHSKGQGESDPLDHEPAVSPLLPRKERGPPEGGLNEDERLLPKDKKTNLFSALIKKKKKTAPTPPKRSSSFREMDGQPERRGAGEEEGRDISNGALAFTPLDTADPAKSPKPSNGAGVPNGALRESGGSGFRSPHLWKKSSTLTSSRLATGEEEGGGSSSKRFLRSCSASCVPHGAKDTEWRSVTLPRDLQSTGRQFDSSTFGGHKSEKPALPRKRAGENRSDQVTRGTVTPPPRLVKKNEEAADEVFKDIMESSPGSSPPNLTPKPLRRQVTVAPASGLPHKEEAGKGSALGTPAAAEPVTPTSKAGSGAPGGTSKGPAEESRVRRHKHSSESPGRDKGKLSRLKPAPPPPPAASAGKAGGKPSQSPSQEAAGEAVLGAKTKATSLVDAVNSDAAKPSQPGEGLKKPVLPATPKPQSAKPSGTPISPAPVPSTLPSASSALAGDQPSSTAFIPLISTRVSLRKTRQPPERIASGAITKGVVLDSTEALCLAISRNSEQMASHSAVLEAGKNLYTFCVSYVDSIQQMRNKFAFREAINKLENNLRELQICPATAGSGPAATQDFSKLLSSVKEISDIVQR
Text: as §4

[11] = Day 3, 1% topical once daily, modified McDonald-Shadduck score, 0=normal, 1-4 mild to severe, cells = rabbit 1/2, OD/OS

## C[C@H](N)C1CCN(S(=O)(=O)c2cccc3cnccc23)CC1 [BA-1076]
[1]
  Radiation-induced jejunal damage (LGR5 expression): mitigated radiation-induced jejunal damage
[2]; [11]
  Aqueous Flare: 0
  Cellular Flare: 0
  Conjunctival Congestion: 0
  Conjunctival Discharge: 0
  Conjunctival Swelling: 0
  Cornea: 0
  Iris Involvement: 0
  Pannus: 0
  Pupillary Response: 0
  Surface Area of Cornea Involvement: 0
[2]; daily repeat topical dosing, 1%, three days
  Hyperemia / adverse ocular findings: did not cause hyperemia
[3]
  ROCK1/ROCK2 (fold difference): 55.5
[3]; listed as BA-1076*
  ROCK1/ROCK2 (fold difference): 60.8
[4]; ATP at Km, 70 μM, * = higher purity BA-1076
  IC50: 19.6 µM
[5]
  Inhibition of PKA: Neither compound inhibited PKA
[6]
  Kinome Screen % inhibition ROCK2: >99%
[7]
  Kinome Screen % inhibition ROCK1: >99%
[8]
  IC50: 10 µM
[9]; 10 μM ATP (below Km), * = preliminary
  IC50: 0.73 µM
[9]; ROCK1 vs ROCK2 IC50 at 10 μM ATP
  Fold-difference: 14
[10]
  Binding to Abl: a second kinome screen did not confirm significant binding of BA-1076 to Abl

## C[C@H](N)C1CCN(S(=O)(=O)c2cccc3c(=O)[nH]ccc23)CC1 [BA-2057]
[1]
  Radiation-induced jejunal damage (LGR5 expression): mitigated radiation-induced jejunal damage
[3]
  IC50: 0.491 µM
  ROCK1/ROCK2 (fold difference): 48.0
[4]
  IC50: 23.6 µM
[6]
  Kinome Screen % inhibition ROCK2: >96%
[7]
  Kinome Screen % inhibition ROCK1: >98%
